Tests used:
[1] = tested on: deoxycorticosterone acetate (DOCA)/salt-induced model of FSGS; experiment: DOCA/salt-induced mouse model of FSGS: renoprotection, body weight, blood pressure, organ/body weight ratios; format: in vivo, mice (129/sv strain); details: DOCA/salt mice
Description: 10-nitro-9(E)-octadec-9-enoic acid, given orally after onset of renal injury, was evaluated for efficacy in a model for Focal Segmental Glomerular Sclerosis (FSGS) in humans. […] Mice were uni-nephrectomized and, after two weeks, implanted subcutaneously with DOCA (50 mg, 21-day release) or placebo sustained release pellets, with pellet replacement 3 weeks later. All groups, except the sham control group, also received 1% NaCl in tap water. 10-nitro-9(E)-octadec-9-enoic acid (daily oral gavage, 2.5 or 12.5 mg/kg) or enalapril (20 mg/kg/day in drinking water) treatments began 2 weeks after the first DOCA implantation and continued for 4 weeks. Enalapril was included for comparison because it is used as standard of care for FSGS and this is a positive control for the model.
(§1) Induction of model: Male mice (129/sv strain) were purchased from Taconic Labs. The animals were uninephrectomized (Unx) at 6 weeks of age by the vendor and shipped one week after surgery. At 2 weeks post Unx, a DOCA or placebo pellet (21-day release pellets, 50 mg/pellet, Innovative Research of America, Sarasota, Fla.) was implanted s.c. All mice were then placed on a semisynthetic diet which contained a moderate fat content and a low phytoestrogen/anti-oxidant level, which approximates a normal human diet (4). A second DOCA or placebo pellet was implanted three weeks later.
(§2) Treatment: Mice were treated with placebo, 10-nitro-9(E)-octadec-9-enoic acid at a dose of 2.5 and 12.5 mg/kg, or enalapril (standard of care) for 4 weeks by oral gavage starting 2 weeks after the first DOCA implantation. One percent NaCl in tap water was given to each group except the sham control group. Body weight was measured weekly, and doses were readjusted based on the current body weight. Urine and blood samples were collected prior to treatment and at week 2 and 4 of treatment. Mice were terminated at week 4. Data is presented as the mean+SEM for the number of animals listed in each group.

[2] = tested on: deoxycorticosterone acetate (DOCA)/salt-induced model of FSGS; experiment: DOCA salt study: histological assessment of kidney; format: in vivo, mice (129/sv strain); details: DOCA/salt mice, 4 weeks
Description: as §1, §2
Histological Assessment: Formalin fixed, paraffin embedded kidneys were sectioned at 3 microns and stained with hematoxylin and eosin (H&E), periodic acid-Schiff (PAS) and Masson's Trichrome for histological analysis. Slides were blindly evaluated by an experienced pathology investigator. Glomerular and tubular pathology, interstitial inflammation and interstitial fibrosis were semi-quantitatively scored on a scale of 0-4 as follows: 0=normal; 1=mild; 2=moderate; 3=marked; 4=severe.
Glomerular hypertrophy was evaluated by measuring glomerular area and expressed as a mean value of 50 glomeruli per kidney. Glomerular hypertrophy is an important marker for diabetic and hypertensive-mediated chronic kidney disease. […] This finding is consistent with unchanged gene expression profile for podocyte markers (Table 2), and seems reasonable given that the disease was relatively modest.

[3] = tested on: deoxycorticosterone acetate (DOCA)/salt-induced model of FSGS; experiment: DOCA salt study: RT-PCR analysis of kidney gene expression; format: in vivo, mice (129/sv strain); details: DOCA/salt mice kidney; for Nephrin gene expression / Podocin gene expression: normalized to 18S, fold changes to control group, mean ± SEM; for gene expression of MCP-1, osteopontin, collagen III, fibronectin and PAI-1 (mRNA, qRT-PCR): 4 weeks
Description: as §1, §2
RT-PCR Analysis of Gene Expression: A slice of kidney from each mouse was placed in Trizol solution (Invitrogen) immediately after harvesting and stored at −80° C. until analysis. Tissues were homogenized using a bead mill in 0.5 ml of Trizol solution and total RNA was extracted with chloroform (Sigma) and purified using standard RNeasy mini kit (Qiagen), with on column DNase 1 (Qiagen) digestion to avoid non-specific fluorescence emission derived from the recognition of contaminating genomic DNA by the probe, according to manufacturer's recommendation. RNA samples were eluted in 30 μl of nuclease-free water and quantified using a Nanodrop. cDNA was generated from 2 μg of RNA by using Clontech Sprint PowerScript reagents according to manufacturer's protocol. Fluorogenic probes specific for genes assayed in the report were purchased from Applied Biosystems. PCR amplification and analysis of PCR reaction were performed and monitored using an ABI Prism 7900HT Sequence Detection System (TaqMan, Perkin-Elmer Applied Biosystem). Data analysis was carried out by using the Sequence Detection Systems v2.3 program (Applied Biosystems). For each cDNA sample the Ct value of each target sequence was normalized to reference gene (Ribosomal RNA-18S), and shown as fold changes to control group. Statistical analyses for gene expression data was performed using a two-tailed Student's t-test.

[4] = tested on: deoxycorticosterone acetate (DOCA)/salt-induced model of FSGS; experiment: DOCA salt study: urinary isoprostane and tetranor-PGDM by LC-MS; format: in vivo, mice (129/sv strain); details: DOCA/salt mice
Description: as §1, §2
Isoprostanes are a unique series of prostaglandin-like compounds formed in vivo via a non-enzymatic mechanism involving the free radical-initiated peroxidation of arachidonic acid. It has been shown that 8-iso-PGF2a (15-F2t-isoprostane) is the isoprostane that correlates best with increasing oxidative stress. Therefore, to assess the effect of treatment on oxidative stress, this isoform was measured using LC-MS. Also measured was tetranor-PGDM, a urinary metabolite of prostaglandin D2. […] On the other hand, elevated tetranor-PGDM was lowered with treatment of 10-nitro-9(E)-octadec-9-enoic acid and enalapril at the end time point (FIG. 18).

db/db model = details: given by infusion; cited from earlier work

CCCCCCCC/C(=C\CCCCCCCC(=O)O)[N+](=O)[O-] [CXA-10, 10-nitro-9(E)-octadec-9-enoic acid]
renal protector (renoprotective effect) ([1]; 2.5 mg/kg/day oral gavage): highly effective as a renal protector | body weight gains ([1]; 10-nitro-9(E)-octadec-9-enoic acid 2.5 or 12.5 mg/kg p.o. or enalapril 20 mg/kg/d, 4 weeks): unaffected | kidney/body weight and heart/body ratios ([1]; low dose 2.5 mg/kg p.o. QD, 4 weeks): reduced | glomerulosclerosis: average scores and percent of glomerular damage (sclerosis) ([2]; both doses (2.5 and 12.5 mg/kg p.o. QD)): significantly reduced | glomerular hypertrophy (glomerular area, mean of 50 glomeruli per kidney) ([2]; high dose 12.5 mg/kg p.o. QD): did not have an effect | tubulointerstitial lesions ([2]; high dose 12.5 mg/kg p.o. QD): only slightly | glomerular hypertrophy (glomerular area, mean of 50 glomeruli per kidney) ([2]; low dose 2.5 mg/kg p.o. QD): reduced | tubulointerstitial lesions ([2]; low dose 2.5 mg/kg p.o. QD): improved | Nephrin gene expression ([3]; 2.5 mpk): 1.264 ± 0.0789 | Podocin gene expression ([3]; 2.5 mpk): 1.077 ± 0.123 | Nephrin gene expression ([3]; 12.5 mpk): 1.313 ± 0.15 | Podocin gene expression ([3]; 12.5 mpk): 1.117 ± 0.084 | gene expression of MCP-1, osteopontin, collagen III, fibronectin and PAI-1 (mRNA, qRT-PCR) ([3]; high dose 12.5 mg/kg p.o. QD): neither the high dose 10-nitro-9(E)-octadec-9-enoic acid nor enalapril had an effect | gene expression of MCP-1, osteopontin, collagen III, fibronectin and PAI-1 (mRNA, qRT-PCR) ([3]; low dose 2.5 mg/kg p.o. QD): inhibited these genes | urinary tetranor-PGDM ([4]; end time point): lowered | urinary 8-iso-PGF2a, compared with the high dose or enalapril ([4]; low dose 2.5 mg/kg, not statistically significant): trended to have a greater reduction | podocyte number (db/db model): increase in podocyte number

From patent publication US10537541B2, “Treatment of focal segmental glomerular sclerosis (FSGS) using therapeutically effective oral doses of 10-nitro-9(E)-octadec-9-enoic acid” (Complexa, Inc., priority 2015, dated 2020)
